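Method: 48-hour compound exposure of cells in 96-well plates, five concentrations, linear interpolation of endpoints. GI50 marks 50% less growth. At the TGI there is no net growth.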
Key:
Assay in all cases: NCI tumour cell line growth inhibition, 48 h
LXFL 529 NSCLC = test system: LXFL 529 NSCLC
DMS 114 small cell lung = test system: DMS 114 small cell lung
M19-MEL melanoma = test system: M19-MEL melanoma
XF 498 CNS = test system: XF 498 CNS
KM20L2 colon = test system: KM20L2 colon
MDA-N = test system: MDA-N
DMS 273 small cell lung = test system: DMS 273 small cell lung
RXF-631 renal = test system: RXF-631 renal
HOP-18 NSCLC = test system: HOP-18 NSCLC
P388/ADR leukemia = test system: P388/ADR leukemia
SN12K1 renal = test system: SN12K1 renal
P388 leukemia = test system: P388 leukemia

| Compound | TGI (LXFL 529 NSCLC) [µM] | TGI (DMS 114 small cell lung) [µM] | TGI (M19-MEL melanoma) [µM] | TGI (XF 498 CNS) [µM] | TGI (KM20L2 colon) [µM] | TGI (MDA-N) [µM] | TGI (DMS 273 small cell lung) [µM] | TGI (HOP-18 NSCLC) [µM] | further results |
| --- | --- | --- | --- | --- | --- | --- | --- | --- | --- |
| CC1=NN(C(=O)c2ccc(Cl)cc2)C(=O)/C1=C/c1ccccc1O | > 100 | > 100 | > 100 | > 100 | > 100 | – | – | – | – |
| c1cncc(CNCc2cccnc2)c1 | – | – | – | – | – | > 100 | – | – | – |
| C1CC2CN(CCCN3CCOCC3)C(C1)O2 (centres undefined) | – | – | – | – | – | > 100 | – | – | – |
| COc1cc2c(cc1O)CC1c3c(cc(O)c(OC)c3-2)CCN1C (centres undefined) | – | – | – | – | – | > 100 | – | – | – |
| CN1CCc2c1nc(-c1ccc(Cl)cc1)c1c2N(C)CC1 | 77 | 34.3 | > 100 | 32.6 | 72.3 | – | 32 | – | – |
| C=CCC1=C(C)C[C@@H]2CCC(=O)C=C12 | > 100 | > 100 | > 100 | – | – | – | > 100 | – | TGI (RXF-631 renal): > 100 µM |
| COC(=O)c1c2c(cc3c1CC1(Cc4cc5c(c(C(C)=O)c4C1)CCC5)C3)CCC2 (centres undefined) | > 100 | > 100 | > 100 | > 100 | – | – | > 100 | > 100 | – |
| C1CC[N-]CC1.CC(=N\O)/C(C)=N/O.CC(=N\O)/C(C)=N/O.OC1[CH-]CCCC1.[Co+2] | – | – | – | – | – | > 100 | – | – | GI50 (MDA-N): 40.9 µM |
| C#Cc1c(C)c(/C=C/C(C)=C/C(=O)OC)n(C)c1C | > 100 | > 100 | > 100 | > 100 | > 100 | – | > 100 | > 100 | – |
| COc1ccc(/C(Cl)=C/c2cc(OC)ccc2OC)cc1 | > 100 | > 100 | > 100 | > 100 | > 100 | – | > 100 | > 100 | – |
| CC(C)Cc1ccc(C(C)CC2=CCC(CN(C)C)C2=O)cc1 (centres undefined) | 3.11 | 10.9 | 13.8 | – | 21.2 | 17.9 | 14.9 | 32.6 | TGI (P388/ADR leukemia): > 100 µM; TGI (RXF-631 renal): 30.5 µM; TGI (SN12K1 renal): 11.7 µM; TGI (P388 leukemia): 6.34 µM |
| COc1ccc(CCn2c(=O)c3ccccc3n(C)c2=O)cc1 | > 100 | > 100 | > 100 | > 100 | > 100 | – | – | – | – |
| CC(=O)O[C@]1(C)OC(=O)[C@@H](CC(C)C)N1[N+](=O)[O-] | > 100 | > 100 | > 100 | – | > 100 | – | > 100 | > 100 | – |
| CC(C)=CCC(OC(=O)C=C(C)C)C1=CC(=O)c2c(O)ccc(O)c2C1=O (centres undefined) | – | 3.03 | 1.87 | 1.74 | 5.64 | – | 5.53 | 7.58 | TGI (P388/ADR leukemia): 19.5 µM; TGI (SN12K1 renal): 2.93 µM; TGI (P388 leukemia): 2.77 µM |
| CCOC(=O)N1CCc2cc(OC)c(OC)cc2/C1=C\c1ccc(OC)c(OC)c1 | > 100 | > 100 | 63.3 | > 10 | 65.4 | – | 61.9 | 90.7 | – |
| CC(=O)[O-].[Mn+3].[O-]c1ccccc1C=NCCNCCN=Cc1ccccc1[O-] | > 100 | – | > 100 | – | – | – | > 100 | > 100 | GI50 (LXFL 529 NSCLC): > 100 µM; GI50 (DMS 273 small cell lung): > 100 µM; GI50 (M19-MEL melanoma): > 100 µM; GI50 (HOP-18 NSCLC): > 100 µM |
| C[Si](C)(C)/C=C\CCO | > 100 | > 100 | > 100 | > 100 | > 100 | – | > 100 | > 100 | TGI (RXF-631 renal): > 100 µM |
| C[C@]12CC[C@H](O)CC1=CC[C@@H]1C2CC[C@]2(C)Nc3c(cnn3-c3ccccc3)CC12 (some centres undefined) | 19.7 | 15.1 | 27.5 | – | 5.8 | – | 3.66 | – | TGI (RXF-631 renal): 3.82 µM |
| CC(C)(C)C(=CS(=O)/N=C/c1ccccc1)C(C)(C)C (centres undefined) | 76.5 | 82.1 | > 100 | 89.7 | > 100 | – | 92 | – | TGI (RXF-631 renal): > 100 µM |
| Cc1cccc(C)c1NC(=O)CCc1nc(=S)[nH][nH]1 | > 100 | > 100 | > 100 | > 100 | > 100 | – | – | – | TGI (RXF-631 renal): > 100 µM |
| CC(C)OP(=O)(OC(C)C)/C(N)=N/Nc1ccc([N+](=O)[O-])cc1 | > 100 | > 100 | > 100 | > 100 | > 100 | – | > 100 | – | – |
| Cn1c(-c2ccc(/C=N/NC(=S)N/N=C/c3ccc(-c4c[n+]5ccsc5n4C)cc3)cc2)c[n+]2ccsc12 | – | – | – | – | – | > 100 | – | – | – |
| O=C(Nn1c(-c2ccccc2)nc2ccccc2c1=O)c1ccccc1O | – | – | – | – | – | > 100 | – | – | – |

| Compound | TGI (LXFL 529 NSCLC) [µM] | TGI (DMS 114 small cell lung) [µM] | TGI (M19-MEL melanoma) [µM] | TGI (XF 498 CNS) [µM] | TGI (KM20L2 colon) [µM] | TGI (MDA-N) [µM] | TGI (DMS 273 small cell lung) [µM] | TGI (HOP-18 NSCLC) [µM] | further results |
| --- | --- | --- | --- | --- | --- | --- | --- | --- | --- |
| O=C1CCC(N2C(=O)c3ccccc3C2=O)C(=O)N1 (centres undefined) | – | – | – | – | – | > 100 | – | – | – |
| Cc1c(NC(=S)NC(=O)c2ccc([N+](=O)[O-])cc2)c(=O)n(-c2ccccc2)n1C | > 100 | > 100 | > 100 | – | > 100 | – | > 100 | > 100 | – |
| CC1=Nc2ccccc2/C1=C\c1c(C)[nH]c2ccccc12 | – | – | – | – | – | 37.4 | – | – | – |
| N/N=C1\C(=O)N(c2ccc(Cl)cc2Cl)C(=O)C(=O)C1c1nc2ccccc2o1 (centres undefined) | > 100 | > 100 | > 100 | – | > 100 | – | > 100 | > 100 | TGI (RXF-631 renal): > 100 µM |
| CC1=Cc2ccc(C)cc2C(=O)C1=O | – | – | – | – | – | 11.9 | – | – | – |
| C=C1C(=O)OC2CC(C)C3CC(O)OC(OCC)C3(C)CC12 (centres undefined) | – | – | – | – | – | 35.7 | – | – | – |
| CC1CCSC(N(C(=O)N(C)c2ccccc2)c2ccccc2)=N1 (centres undefined) | > 100 | > 100 | > 100 | > 100 | > 100 | – | > 100 | – | – |
| COC(=O)CC(NC(=O)OCc1ccccc1)C(C(=O)OCc1ccccc1)C(C)(OC)OC (centres undefined) | 57.2 | 91.7 | > 100 | 37.3 | > 100 | – | > 100 | – | – |
| O=C1C=CC(=O)c2c(O)c(NCCOCCO)c(Cl)c(O)c21 | 20.4 | – | 3.22 | – | – | – | 14.8 | 29.1 | – |
| CC(=O)OCC(=O)[C@@]12OC(C)(C)O[C@@H]1C[C@H]1[C@@H]3CC(C=O)=C4C=C(OCCCl)CC[C@]4(C)[C@@]3(F)[C@@H](O)C[C@@]12C | – | > 100 | > 100 | 35.8 | 38.2 | – | > 100 | 87.6 | – |
| COc1cc(C)c(C2NC(=O)c3ccccc3N2)cc1C (centres undefined) | – | – | – | – | – | 0.128 | – | – | – |
| CN(C)CCSS(=O)(=O)O | – | – | – | – | – | > 100 | – | – | – |
| COc1ccc(CCc2cc(OC)cc(OC)c2)cc1 | > 100 | 24.6 | > 100 | 83.8 | > 58 | – | > 100 | > 100 | TGI (RXF-631 renal): > 72.7 µM |
| O=C1CC(c2[nH]nc3ccccc23)C(=O)N1c1ccccc1 (centres undefined) | > 100 | > 100 | > 100 | > 100 | > 100 | > 100 | > 100 | > 100 | TGI (RXF-631 renal): > 100 µM |
| O=C1/C(=C/c2ccccc2)CN(C(=O)CCN2CCCC2)C/C1=C\c1ccccc1 | 4.36 | 4.66 | 3.79 | 16.8 | 3.91 | 1.46 | 3.58 | 9.09 | TGI (RXF-631 renal): 13.2 µM |
| Cc1ccc(N=Nc2c(O)ccc3ccccc23)cc1 | – | – | – | – | – | > 100 | – | – | – |
| CC(C)CCCC(C)[C@H]1CCC2[C@@H]3CCC4Nc5c(cnn5-c5ccccc5)C[C@]4(C)C3CC[C@@]21C (some centres undefined) | > 100 | > 100 | > 100 | > 100 | > 100 | – | 8.08 | > 100 | TGI (RXF-631 renal): 38.4 µM |
| O=S(=O)(NCn1ccc2ccccc21)c1ccccc1 | > 100 | – | > 100 | > 100 | > 100 | – | > 100 | > 100 | TGI (RXF-631 renal): > 100 µM |
| O=c1ncccn1C1OC(CO)C(O)C1O (centres undefined) | > 100 | > 100 | > 100 | – | > 100 | – | > 100 | > 100 | – |
| O=C(O)CCNCCCCNCCC(=O)O | > 100 | – | – | > 100 | > 100 | – | > 100 | > 100 | – |
| C=CCO/N=C(\OC(=O)c1ccc([N+](=O)[O-])cc1)c1ccccc1 | > 100 | > 100 | > 100 | – | – | – | > 100 | > 100 | TGI (RXF-631 renal): > 100 µM |
| COc1ccc(C(=O)C(CC2C(=O)NC(=O)NC2=O)c2ccc(OC)cc2)cc1 (centres undefined) | > 100 | > 100 | > 100 | > 100 | > 100 | – | > 100 | > 100 | – |
